Measured values as given in patent US12391647B2, “Benzamide compound and preparation method, use, and pharmaceutical composition thereof” (INSTITUTE OF MATERIA MEDICA, CHINESE ACADEMY OF MEDICAL …, priority 2018, dated 2025).

System: human prostate cancer cell DU145
Assay: MTT assay, survival rate of tumor cells (antiproliferative activity)
Type: cell-based
Conditions: DU-145, 72 h, read-out: Antiproliferative activity against human prostate cancer cell DU145, IC50
Procedure: DU145 cells (human prostate cancer cells) in logarithmic growth phase were digested with 0.25% trypsin-EDTA to prepare single cell suspension, which was inoculated into 96-well plate overnight according to 1500 cells/well/100 μL, and fresh medium containing different concentrations of compounds to be tested and corresponding solvent control was added, and 100 μL (DMSO final concentration <0.1%) was added to each well, and the 96-well plate was further cultured at 37° C. for 72 h. 20 μL of freshly prepared PBS solution containing 5 mg/mL MTT was added to each well, and the 96-well plate was further cultured for 4 h. After the supernatant was discarded, 180 μL of DMSO was added to each well to dissolve the MTT formazan precipitate. After the 96-well plate was shaked and mixed by a micro oscillator, the optical density (OD) at the detection wavelength of 570 nm was measured. With DMSO-treated tumor cells as the control group, the inhibition rate on the growth of tumor cells of the compound to be tested was calculated from the following formula, and the IC50 was calculated according to the median-effect equation. Inhibition rate (%)=(average OD value of control group-average OD value of dosing group)/average OD value of control group×100%

| SMILES | IC50 [µM] |
| --- | --- |
| Cc1ccc(C(=O)NCc2cccnc2)cc1NS(=O)(=O)c1ccc2c(c1)CCO2 [Example 27, 3-((2,3-dihydrobenzofuran)-5-sulfonamido)-4-methyl-N-(pyridin-3-ylmethyl)benzamide] | 1.2 ± 0.01 |
| Cc1ccc(S(=O)(=O)Nc2cc(C(=O)NCc3cccnc3)ccc2Cl)cc1 [Example 4, 4-chloro-3-((4-methylphenyl)sulfonamido)-N-(pyridin-3-ylmethyl) benzamide] | 0.8 ± 0.12 |
| Cc1ccc(S(=O)(=O)Nc2cccc(C(=O)NCc3cccnc3)c2)cc1 [Example 2, 3-((4-methylphenyl)sulfonamido)-N-(pyridin-3-ylmethyl)benzamide] | 0.7 ± 0.15 |
| Cc1ccc(C(=O)NCc2cccnc2)cc1NS(=O)(=O)c1ccc2c(c1)CCC2 [Example 25, 3-((2,3-dihydro-1H-indene)-5-sulfonamido)-4-methyl-N-(pyridinylmethyl)benzamide] | 0.9 ± 0.04 |
| CCOc1ccc(S(=O)(=O)Nc2cc(C(=O)NCc3cccnc3)ccc2C)cc1 [Example 15, 3-((4-ethoxyphenyl)sulfonamido)-4-methyl-N-(pyridin-3-ylmethyl)benzamide] | 0.86 ± 0.06 |
| COc1cccc(S(=O)(=O)Nc2cc(C(=O)NCc3cccnc3)ccc2C)c1 [Example 14, 3-((3-methoxyphenyl)sulfonamido)-4-methyl-N-(pyridin-3-ylmethyl)benzamide] | 2.5 ± 0.02 |
| Cc1ccc(S(=O)(=O)Nc2cc(C(=O)NCc3cccnc3)ccc2C)cc1C [Example 16, 3-((3,4-dimethylphenyl)sulfonamido)-4-methyl-N-(pyridin-3-ylmethyl)benzamide] | 0.97 ± 0.03 |
| Cc1ccc(S(=O)(=O)Nc2ccc(C)c(C(=O)NCc3cccnc3)c2)cc1 [Example 11, 2-methyl-5-((4-methylphenyl)sulfonamido)-N-(pyridin-3-ylmethyl)benzamide] | 2 ± 0.03 |
| Cc1ccc(C(=O)NCc2cccnc2)cc1NS(=O)(=O)c1ccc(Cl)cc1 [Example 21, 3-((4-chlorophenyl)sulfonamido)-4-methyl-N-(pyridin-3-ylmethyl)benzamide] | 0.93 ± 0.05 |
| Cc1ccc(C(=O)NCc2cccnc2)cc1NS(=O)(=O)c1ccc(C(C)C)cc1 [Example 22, 3-((4-isopropylphenyl)sulfonamido)-4-methyl-N-(pyridin-3-ylmethyl)benzamide] | 1 ± 0.16 |
| Cc1ccc(S(=O)(=O)Nc2cc(C)cc(C(=O)NCc3cccnc3)c2)cc1 [Example 7, 3-methyl-5-((4-methylphenyl)sulfonamido)-N-(pyridin-3-ylmethyl)benzamide] | 0.34 ± 0.01 |
| Cc1ccc(S(=O)(=O)Nc2cc(Cl)cc(C(=O)NCc3cccnc3)c2)cc1 [Example 10, 3-chloro-5-((4-methylphenyl)sulfonamido)-N-(pyridin-3-ylmethyl)benzamide] | 0.34 ± 0.01 |
| Cc1ccc(S(=O)(=O)Nc2cc(C(=O)NCc3cccnc3)ccc2F)cc1 [Example 3, 4-fluoro-3-((4-methylphenyl)sulfonamido)-N-(pyridin-3-ylmethyl) benzamide] | 0.79 ± 0.13 |
| Cc1ccc(C(=O)NCc2cccnc2)cc1NS(=O)(=O)c1ccc2c(c1)OCCO2 [Example 28, 3-((2,3-dihydrobenzo[b][1,4]dioxine)-6-sulfonamido)-4-methyl-N-(pyridin-3-ylmethyl)benzamide] | 0.42 ± 0.01 |
| Cc1ccc(C(=O)NCc2cccnc2)cc1NS(=O)(=O)c1ccc2c(c1)OCO2 [Example 26, 3-(benzo[d][1,3]dioxole-5-sulfonamido)-4-methyl-N-(pyridin-3-ylmethyl)benzamide] | 0.61 ± 0.14 |
| COc1ccc(S(=O)(=O)Nc2cc(C(=O)NCc3cccnc3)ccc2C)cn1 [Example 32, 3-((6-methoxypyridine)-3-sulfonamido)-4-methyl-N-(pyridin-3-ylmethyl)benzamide] | 0.4 ± 0.02 |
| Cc1ccc(C(=O)NCc2cccnc2)cc1NS(=O)(=O)c1ccc2ccccc2c1 [Example 29, 4-methyl-3-(naphthalene-2-sulfonamido)-N-(pyridin-3-ylmethyl)benzamide] | 1 ± 0.07 |
